This is an account of results in patent publication US20090221522A1, “METHODS TO CORRECT GENE SET EXPRESSION PROFILES TO DRUG SENSITIVITY” (The Johns Hopkins University, priority 2008, published 2009).

The structures appear in SMILES notation.

In assay [1] the test system is direct-patient pancreatic cancer xenografts. Briefly: Xenograft treatment, relative tumor growth inhibition (TGI). It is filed as in vivo, mice. The source says:
Four- to six-week-old female athymic (nu/nu) mice were purchased from Harlan (Harlan Laboratories, Washington, D.C.). The research protocol was approved by the Johns Hopkins University Animal Use and Care Committee and animals were maintained in accordance to guidelines of the American Association of Laboratory Animal Care. Xenografts obtained from F1 mice were excised and cut into small ˜3×3×3 mm fragments and then implanted subcutaneously in a group of five to six mice for each patient, with two small fragments in each mouse (F2) as described above for the original carcinoma. Half of the rest of the carcinoma was cryopreserved in liquid nitrogen and the other half is processed for biological studies. When the carcinoma reached a size of 1,500 mm^3, they were excised, cut into ˜3×3×3 mm fragments, and transplanted to the final cohort of mice to be treated with the drugs (F3 and successive passages). Further details of the establishment of the direct-patient pancreatic cancer xenografts are described in Rubio-Viqueira B, Jimeno A, Cusatis G, et al. An In vivo Platform for Translational Drug Development in Pancreatic Cancer. Clin Cancer Res 2006 12:4652-61.
Gemcitabine (Eli Lilly, Indianapolis, Ind.) was dissolved in saline. In some embodiments, docetaxel (Sanofi-Aventis, Bridgewater, N.J.) was dissolved in 50% ethanol and 50% DMSO. In other embodiments, docetaxel (Sanofi-Aventis, Bridgewater, N.J.) was dissolved in ethanol/polysorbate 80 as a stock solution and diluted 10-fold in 5% glucose for in vivo studies. Temsirolimus (Wyeth Research, Colleville, Pa.) was dissolved in 10% ethanol, 10% pluronic, and 80% PBS. All drugs were freshly prepared and used at an injection volume of 0.2 mL/20 g body weight. Drug doses and treatment schedules were obtained from published studies.
Xenografts from this second mouse-to-mouse passage (F3) were allowed to grow to a size of ˜200 mm^3, at which time five-to-six mice were randomly assigned to control and treatment groups. […] For docetaxel treatment group, mice were treated with 20 mg/kg once a week via intraperitoneal injection. For temsirolimus treatment group, mice were treated with 20 mg/kg/day via intraperitoneal injection. Mice were treated for 21-28 days, monitored daily for signs of toxicity, and were weighed thrice a week. Tumor size was evaluated thrice a week by caliper measurements using the following formula: tumor volume=[length×width^2]/2 as reported by van de Vijver M J, He Y D, van't Veer L J, et al. A Gene-Expression Signature as a Predictor of Survival in Breast Cancer. N Engl J Med 2002 347:1999-2009.
(§1) Relative tumor growth index (TGI) was calculated as TGI=(Ti−T0/Ci−C0) if Ti>T0 (indicates tumor growth inhibition) and TGI=(Ti−T0) if Ti≦T0 (indicates tumor regression). T and C represent tumor size in the treated and control group at the last of experiment, respectively; T0 and C0 represent tumor size in the treated and control group at the start of treatment, respectively.

The test system of assay [2] is patient-derived xenografts refractory to gemcitabine. In words: Pre-clinical second-line study in xenografts refractory to gemcitabine (TGI). It is filed as in vivo, mice. The settings on record: for tumor volume change: second-line molecular mimicry choice (docetaxel). The procedure:
FIG. 11 illustrates a pre-clinical design.
FIG. 12 illustrates validation on the xenografts of FIG. 11 based on prediction according to the present invention. Four xenograft cases were used. […] A case is defined as a responder to the drug treatment if Tumor Growth Inhibition (TGI) is <20%. Negative TGI values indicate tumor regression.
as §1
Seven FDA approved anticancer agents (capecitabine, cisplatin, docetaxel, doxorubicin, etoposide, irinotecan and oxaliplatin) were used as potential second line of drugs for selection according to the present invention. The one-size-fits-all treatment was erlotinib, an FDA approved targeted therapy for advanced pancreatic cancer. See Moore M J, Goldstein D, Hamm J, et al. Erlotinib plus gemcitabine compared with gemcitabine alone in patients with advanced pancreatic cancer: a phase Ill trial of the National Cancer Institute of Canada Clinical Trials Group. J Clin Oncol 25:1960-06 2007. […] Xenograft models of these cases were randomly assigned to (i) control, (ii) erlotinib arm (one-size-fits-all second line treatment) and (iii) molecular mimicry arm (i.e., drug selection according to the present invention). For the molecular mimicry arm, the baseline gene expression profiles of these cases were connected the NCI reference panel using GS-CMAP, and one of the seven anticancer agents was assigned to the case based on comparing the GI50 among these drugs. Molecular mimicry predicted that JH033 and JH034 are sensitive to docetaxel, PANC185 is sensitive to irinotecan and PANC219 is sensitive to doxorubicin. These cases were treated with the molecular mimicry choice of drugs and tumor volumes were measured. At the end of the experiment, xenografts treated with molecular mimicry choice of drugs had higher tumor growth inhibition than their litter mates treated with erlotinib (FIGS. 12 and 13).

As for `CC(=O)O[C@@]12CO[C@@H]1C[C@H](O)[C@@]1(C)C(=O)[C@H](O)C3=C(C)[C@@H](OC(=O)[C@H](O)[C@@H](NC(=O)OC(C)(C)C)c4ccccc4)C[C@@](O)([C@@H](OC(=O)c4ccccc4)[C@H]21)C3(C)C` [docetaxel], the “xenograft response (sensitive/resistant)” value in assay [1] (xenograft PANC185, docetaxel) is listed as “resistant”; in assay [1] (xenograft PANC215, docetaxel), “resistant”; in assay [1] (xenograft PANC265, docetaxel), “sensitive”. The TGI is 83% in assay [1] (xenograft PANC185, docetaxel for 21 days); 41% in assay [1] (xenograft PANC215, docetaxel for 21 days); −79% in assay [1] (xenograft PANC265, docetaxel for 21 days). Also, the tumor volume change entry in assay [2] (xenograft JH033) and in assay [2] (xenograft JH034) was “Regression in tumor volume” throughout.
As to `C#Cc1cccc(Nc2ncnc3cc(OCCOC)c(OCCOC)cc23)c1` [erlotinib], in assay [2] (four xenograft cases (PANC185, PANC219, JH033, JH034)), the “median TGI” value came out at 33%. Also, the “mean TGI %” value in assay [2] (four xenograft cases, second-line arm) is reported as 30%. Also, in assay [2] (of four xenograft cases, second-line treatment), the “responders (TGI <20%)” value is “only one xenograft responded”.
In the case of `CO[C@H]1C[C@@H]2CC[C@@H](C)[C@@](O)(O2)C(=O)C(=O)N2CCCC[C@H]2C(=O)O[C@H]([C@H](C)C[C@@H]2CC[C@@H](OC(=O)C(C)(CO)CO)[C@H](OC)C2)CC(=O)[C@H](C)/C=C(\C)[C@@H](O)[C@@H](OC)C(=O)[C@H](C)C[C@H](C)/C=C/C=C/C=C/1C` [temsirolimus], the TGI in assay [1] (xenograft JH024, after temsirolimus treatment) is 94%; in assay [1] (xenograft PANC219, after temsirolimus treatment), −23%. Moreover, the “xenograft response (sensitive/resistant)” value in assay [1] (xenograft JH024, temsirolimus) is on record as “resistant”; in assay [1] (xenograft PANC219, temsirolimus), “sensitive”.
